Test results from the supplement of paper PMC10307832.

What was measured:
Experiment in all cases: relative viability (nuclei count vs DMSO), 5 days (fraction); higher = more cells survive
[1] = compound: Cc1ccc2nc(NCCN)c3ncc(C)n3c2c1 + C[C@]1(O)C[C@@H](c2nc(-c3ccc4ccc(-c5ccccc5)nc4c3)c3c(N)nccn32)C1 [Linsitinib] (partner 1 µM)
How it was run: (§1)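 For relative viability, nuclei counts in treated wells were divided by those in vehicle wells. Lung cancer cell lines had been pin-tool dosed in 1536-well plates the day after seeding and cultured for 5 days, then fixed and stained in one step (final 0.05% Triton X-100, 1% formaldehyde, 1 ug/ml Hoechst) and imaged at 4×. Doses were one drug alone or a fixed anchor-drug dose plus five library-drug doses (not always all listed) in √10 steps, and values are duplicate-plate medians.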

[2] = compound: O=C(/C=C/c1ccccc1)NC(NC(=S)Nc1cccc2cccnc12)C(Cl)(Cl)Cl [Salubrinal] + CS(=O)(=O)N1CCN(Cc2cc3nc(-c4cccc5[nH]ncc45)nc(N4CCOCC4)c3s2)CC1 [Pictilisib] (partner 1 µM)
How it was run: as §1

[3] = compound: Cc1ccc2nc(NCCN)c3ncc(C)n3c2c1 + C[C@@H](Oc1cc(-c2cnn(C3CCNCC3)c2)cnc1N)c1c(Cl)ccc(F)c1Cl [Crizotinib] (partner 1 µM)
How it was run: as §1

[4] = compound: Cc1ccc2nc(NCCN)c3ncc(C)n3c2c1 + COc1cc2c(Oc3ccc(NC(=O)C4(C(=O)Nc5ccc(F)cc5)CC4)cc3F)ccnc2cc1OCCCN1CCOCC1 [Foretinib] (partner 0.25 µM)
How it was run: as §1

| Cell Line | relative viability ([1]; first compound 0.04 µM) | relative viability ([1]; first compound 0.1265 µM) | relative viability ([1]; first compound 0.4 µM) | relative viability ([1]; first compound 1.265 µM) | relative viability ([1]; first compound 4 µM) | relative viability ([2]; first compound 0.08 µM) | relative viability ([2]; first compound 0.253 µM) | relative viability ([2]; first compound 0.8 µM) | relative viability ([2]; first compound 2.53 µM) | relative viability ([2]; first compound 8 µM) | relative viability ([3]; first compound 0.04 µM) | relative viability ([3]; first compound 0.1265 µM) | relative viability ([3]; first compound 0.4 µM) | relative viability ([3]; first compound 1.265 µM) | relative viability ([3]; first compound 4 µM) | relative viability ([4]; first compound 0.04 µM) | relative viability ([4]; first compound 0.1265 µM) | relative viability ([4]; first compound 0.4 µM) | relative viability ([4]; first compound 1.265 µM) | relative viability ([4]; first compound 4 µM) |
| --- | --- | --- | --- | --- | --- | --- | --- | --- | --- | --- | --- | --- | --- | --- | --- | --- | --- | --- | --- | --- |
| NCI-H2023 | 0.73 | 0.606 | 0.658 | 0.756 | 0.577 | 0.22 | 0.278 | 0.289 | 0.277 | 0.208 | 0.702 | 0.652 | 0.733 | 0.767 | 0.414 | 0.932 | 0.522 | 1.01 | 0.803 | 0.708 |
| NCI-H23 | 0.746 | 0.489 | 0.55 | 0.611 | 0.576 | 0.511 | 0.583 | 0.548 | 0.442 | 0.486 | 0.731 | 0.549 | 0.554 | 0.437 | 0.447 | 1.09 | 1.04 | 0.963 | 0.88 | 1.03 |
| NCI-H520 | 0.997 | 1.15 | 0.947 | 0.884 | 0.853 | 0.376 | 0.212 | 0.338 | 0.302 | 0.316 | 0.725 | 0.699 | 0.761 | 0.791 | 0.639 | 0.878 | 0.949 | 0.647 | 0.892 | 0.661 |
| A549 | 0.791 | 0.557 | 0.598 | 0.423 | 0.534 | 0.585 | 0.419 | 0.517 | 0.436 | 0.35 | 0.826 | 0.744 | 0.753 | 0.547 | 0.485 | 1.08 | 0.85 | 0.975 | 0.921 | 0.855 |
| NCI-H460 | 0.759 | 0.735 | 0.751 | 0.692 | 0.642 | 0.261 | 0.296 | 0.398 | 0.482 | 0.518 | 0.98 | 0.923 | 0.952 | 0.851 | 0.64 | 0.982 | 0.901 | 0.955 | 0.928 | 0.965 |
| EKVX | 1.04 | 0.972 | 0.962 | 0.865 | 0.805 | 0.508 | 0.494 | 0.525 | 0.461 | 0.482 | 0.921 | 0.794 | 1.02 | 1.05 | 0.903 | 0.987 | 1.04 | 0.866 | 0.822 | 0.777 |
| NCI-H1944 | 1.06 | 1.3 | 1.21 | 1.23 | 1.19 | 0.349 | 0.328 | 0.362 | 0.348 | 0.307 | 1.05 | 1.18 | 1.09 | 1.19 | 1.09 | 0.896 | 0.862 | 0.773 | 0.9 | 0.958 |
| EPLC-272H | 1.44 | 1.02 | 1.13 | 1.32 | 1.15 | 0.293 | 0.282 | 0.355 | 0.33 | 0.24 | 0.948 | 0.846 | 1.06 | 0.948 | 0.91 | 0.664 | 0.809 | 0.64 | 0.75 | 0.692 |
| NCI-H1563 | 1.31 | 1.02 | 1.1 | 1.39 | 1.21 | 0.665 | 0.586 | 0.639 | 0.623 | 0.591 | 0.865 | 0.835 | 0.906 | 0.918 | 0.88 | 0.954 | 0.882 | 0.872 | 1.06 | 0.991 |
| NCI-H2126 | 0.781 | 0.759 | 0.679 | 0.645 | 0.673 | 0.423 | 0.479 | 0.515 | 0.483 | 0.481 | 1.04 | 0.999 | 1.09 | 1 | 1.03 | 1.41 | 1.07 | 1.18 | 1.2 | 1.14 |
| LXF-289 | 0.981 | 0.949 | 0.967 | 0.975 | 1.01 | 0.871 | 0.728 | 0.829 | 0.778 | 0.731 | 0.806 | 0.834 | 0.842 | 0.857 | 0.856 | 0.95 | 1 | 0.955 | 0.992 | 0.958 |
| NCI-H2009 | 1.15 | 1.14 | 1.22 | 1.22 | 1.05 | 0.976 | 0.857 | 1.02 | 0.756 | 0.749 | 1.06 | 1.06 | 1.14 | 1.04 | 0.784 | 1.22 | 1.23 | 1.24 | 1.23 | 1.04 |
| SK-MES-1 | 1.08 | 0.993 | 1.09 | 1.05 | 1.03 | 0.435 | 0.339 | 0.356 | 0.305 | 0.335 | 0.924 | 0.939 | 0.911 | 1.03 | 0.912 | 1.04 | 0.91 | 1.01 | 0.853 | 0.875 |
| NCI-H2405 | 0.942 | 0.855 | 0.928 | 1.03 | 0.763 | 0.338 | 0.442 | 0.458 | 0.406 | 0.431 | 0.951 | 0.827 | 0.853 | 0.838 | 0.791 | 1.05 | 1.04 | 1.05 | 0.978 | 0.986 |
| NCI-H1755 | 0.989 | 1 | 0.934 | 1.07 | 0.946 | 0.564 | 0.417 | 0.535 | 0.431 | 0.401 | 0.94 | 0.891 | 0.857 | 0.935 | 0.863 | 0.936 | 0.84 | 0.919 | 0.928 | 0.876 |
| HCC-78 | 0.539 | 0.537 | 0.496 | 0.491 | 0.448 | 0.195 | 0.0891 | 0.312 | 0.232 | 0.229 | 0.37 | 0.327 | 0.328 | 0.332 | 0.334 | 0.579 | 0.584 | 0.493 | 0.626 | 0.558 |
